pKi: −log10 of the molar value.
Molecular target: Human immunodeficiency virus type 1 protease (Human immunodeficiency virus 1, UniProt Q72874)
Assay: ChEBML_157558
Description: Inhibition of HIV-1 protease.

pKi	Compound
8.72	N#Cc1ccc(S(=O)(=O)Cc2cccc(C(c3c(O)c4c(oc3=O)CCCCCC4)C3CC3)c2)cc1 (configuration not stated) [4-{3-[Cyclopropyl-(4-hydroxy-2-oxo-5,6,7,8,9,10-hexahydro-2H-cycloocta[b]pyran-3-yl)-methyl]-phenylmethanesulfonyl}-benzonitrile]
8.72	O=c1oc2c(c(O)c1C(c1cccc(CS(=O)(=O)c3ccccn3)c1)C1CC1)CCCCCC2 (configuration not stated) [3-{Cyclopropyl-[3-(pyridine-2-sulfonylmethyl)-phenyl]-methyl}-4-hydroxy-5,6,7,8,9,10-hexahydro-cycloocta[b]pyran-2-one]
